Data reported in ChEMBL document CHEMBL1201862, “PubChem BioAssay data set” (2004).
Activity calls are given as the source filed them.

Tests used:
[1] = cytotoxicity toward NIH3T3 fibroblasts, dose response, counter-screen, cell-based, ATP luminescence, mouse fibroblasts (AID 2010); type: functional;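 also: cells exposed to compound for about 90 hours before reading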
[2] = inhibitors of intracellular T. cruzi replication, confirmation, NIH3T3 host cells, beta-gal luminescence (AID 2044); type: functional, cell-based;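 also: intracellular parasites grown in NIH/3T3 mouse fibroblasts as host cells; luminescent beta-galactosidase reporter signal from transgenic T. cruzi replicating inside host cells; inhibitors lower the luminescence signal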
Estrogen receptor = target: T1, Estrogen receptor (Homo sapiens, UniProt P03372);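 also: potency for inhibiting coactivator peptide recruitment to the receptor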
T1 sequence (P03372 whole entry): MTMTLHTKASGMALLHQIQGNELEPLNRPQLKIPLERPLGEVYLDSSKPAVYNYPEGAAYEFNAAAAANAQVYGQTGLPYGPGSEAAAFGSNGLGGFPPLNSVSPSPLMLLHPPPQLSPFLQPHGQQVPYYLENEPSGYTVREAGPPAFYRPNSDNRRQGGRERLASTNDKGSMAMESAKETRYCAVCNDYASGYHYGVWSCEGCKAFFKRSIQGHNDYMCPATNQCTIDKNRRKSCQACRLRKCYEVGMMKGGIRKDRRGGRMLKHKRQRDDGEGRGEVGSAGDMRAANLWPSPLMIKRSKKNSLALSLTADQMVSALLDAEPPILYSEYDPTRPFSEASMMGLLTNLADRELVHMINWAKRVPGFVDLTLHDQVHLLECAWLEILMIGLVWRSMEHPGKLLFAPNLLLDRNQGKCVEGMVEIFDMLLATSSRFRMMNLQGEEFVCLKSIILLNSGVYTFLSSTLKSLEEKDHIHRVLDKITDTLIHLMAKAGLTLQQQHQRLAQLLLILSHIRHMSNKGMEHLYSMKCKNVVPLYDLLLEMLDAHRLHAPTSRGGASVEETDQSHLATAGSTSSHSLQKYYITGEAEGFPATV

[3] = LGR2 antagonists, dose response, cell-based, HEK293, CRE-luciferase reporter, cherry pick, set 2 (AID 743343); type: functional;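 also: transfected cells were stimulated with diluted bursicon conditioned medium after compound addition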
[4] = MC4R antagonists, dose response, counter-screen for LGR2 antagonist project, cell-based, plate reader, cherry pick (AID 743444); type: functional;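 also: transfected HEK 293 cells stimulated with alpha-MSH peptide; potency of inhibitors of the alpha-MSH evoked signal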
[5] = target: Induced myeloid leukemia cell differentiation protein Mcl-1 (Homo sapiens, UniProt Q07820); type: functional
Sequence of Induced myeloid leukemia cell differentiation protein Mcl-1 (Q07820 whole entry, the tested form may be a part): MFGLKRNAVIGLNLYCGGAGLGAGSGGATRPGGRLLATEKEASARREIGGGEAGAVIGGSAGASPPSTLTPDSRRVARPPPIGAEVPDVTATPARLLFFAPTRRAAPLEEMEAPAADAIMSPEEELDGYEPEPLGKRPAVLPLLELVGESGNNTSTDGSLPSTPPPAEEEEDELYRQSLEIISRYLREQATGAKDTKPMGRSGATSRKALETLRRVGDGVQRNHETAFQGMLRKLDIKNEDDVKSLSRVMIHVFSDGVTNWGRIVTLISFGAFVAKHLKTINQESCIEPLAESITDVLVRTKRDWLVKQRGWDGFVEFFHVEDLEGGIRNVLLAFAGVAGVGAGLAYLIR

[6] = ZM109 Env clade C HIV-1 fusion inhibitors, dose response, HeLa effector, CEM target cells, luciferase, cherry-pick (AID 652058); type: functional, cell-based
[7] = inhibitors of HIV Env-driven cell fusion, dose response, cherry-pick (AID 652057); type: functional, cell-based
[8] = inhibitors of clade B AD8 Env fusion, dose response, cell-based, cherry-pick (AID 652062); type: functional;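 also: luciferase signal from cell-cell fusion driven by HIV-1 clade B AD8 Env; potency is for inhibitors of fusion seen as a drop in luminescence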

CSc1ncc2c(n1)-c1cc(C)ccc1SC2
EC50 [1]: > 30 µM (not active) | EC50 [2]: 0.135 µM (active) | IC50 (Estrogen receptor): > 50 µM (not active)

O=C(Nc1ccc(Cl)c(S(=O)(=O)N2CCOCC2)c1)c1ccc2c(c1)OCCO2
AC50 [3]: 37.9 µM (active) | AC50 [4]: 38.9 µM (active)

COc1ccc(OC)c(NC(=O)c2cc(-c3ccc(C)cc3O)[nH]n2)c1
IC50 (Estrogen receptor): 22.1 µM (active)

Cn1cc(C(=O)NC2CCCCCC2)c(=O)c2cc(S(=O)(=O)N3CCCC3)ccc21
IC50 (Estrogen receptor): > 50 µM (not active)

O=C1N=C(NNc2ccccc2)S/C1=C\c1ccccc1
IC50 [5]: 4.76 µM (not active)

C[C@H]1CN([C@@H](C)CO)C(=O)c2cc(NC(=O)Nc3ccc4c(c3)OCO4)ccc2O[C@H]1CN(C)S(=O)(=O)c1ccc(Cl)cc1
AC50 [6]: 5.25 µM (active) | AC50 [7]: 1.49 µM (active) | AC50 [8]: 14.5 µM (active)
